Measurements: patent US5629322A, “Cyclic amidine analogs as inhibitors of nitric oxide synthase” (priority 1995, dated 1997)
Where a name gives a salt, the structure may show the parent alone. Read-outs that look alike come from different tables or passages of the source.

Columns and labels:
NO synthase = assay: Assay Protocol for NOS activity: % inhibition at 50 uM (formation of L-[3H]citrulline from L-[3H]arginine); assay type: biochemical
Procedure: (§1) Assay Protocol for NOS activity
(§2) NOS activity is measured as the formation of L-[2,3,4,5-^3 H]Citrullinefrom L-[2,3,4,5-^3 H]Arginine. The incubation buffer (100 μL) contained; 100 mM TES, pH 7.5, 5 μM FAD, 5 μM FMN, 10 μM BH4, 0.5 mM NADPH, 0.5 mM DTT, 0.5 mg/mL BSA, 2 mM CaCl2, 10 μg/mL calmodulin (bovine), 1 μM L-Arg, 0.2 μCi L-[2,3,4,5-^3 H]Arg, and the inhibitor in aqueous DMSO (max. 5%). The reaction is initiated by addition of enzyme. Incubations are performed at room temperature for 30 minutes and stopped by the addition of an equal volume of quenching buffer consisting of 200 mM sodium citrate, pH 2.2, 0.02% sodium azide. Reaction products are separated by passing through a cation exchange resin and quantitated as cpm by scintillation counting.

iNOS = iNOS (Homo sapiens, UniProt P35228); assay: NOS activity assay, iNOS (L-[3H]citrulline formation); assay type: biochemical
Procedure: as §1, §2

ecNOS = ecNOS (Homo sapiens, UniProt P29474); assay: NOS activity assay, ecNOS (L-[3H]citrulline formation); assay type: biochemical
Procedure: as §1, §2

ncNOS = ncNOS (Homo sapiens, UniProt P29475); assay: biochemical
ncNOS, sequence (P29475 whole entry): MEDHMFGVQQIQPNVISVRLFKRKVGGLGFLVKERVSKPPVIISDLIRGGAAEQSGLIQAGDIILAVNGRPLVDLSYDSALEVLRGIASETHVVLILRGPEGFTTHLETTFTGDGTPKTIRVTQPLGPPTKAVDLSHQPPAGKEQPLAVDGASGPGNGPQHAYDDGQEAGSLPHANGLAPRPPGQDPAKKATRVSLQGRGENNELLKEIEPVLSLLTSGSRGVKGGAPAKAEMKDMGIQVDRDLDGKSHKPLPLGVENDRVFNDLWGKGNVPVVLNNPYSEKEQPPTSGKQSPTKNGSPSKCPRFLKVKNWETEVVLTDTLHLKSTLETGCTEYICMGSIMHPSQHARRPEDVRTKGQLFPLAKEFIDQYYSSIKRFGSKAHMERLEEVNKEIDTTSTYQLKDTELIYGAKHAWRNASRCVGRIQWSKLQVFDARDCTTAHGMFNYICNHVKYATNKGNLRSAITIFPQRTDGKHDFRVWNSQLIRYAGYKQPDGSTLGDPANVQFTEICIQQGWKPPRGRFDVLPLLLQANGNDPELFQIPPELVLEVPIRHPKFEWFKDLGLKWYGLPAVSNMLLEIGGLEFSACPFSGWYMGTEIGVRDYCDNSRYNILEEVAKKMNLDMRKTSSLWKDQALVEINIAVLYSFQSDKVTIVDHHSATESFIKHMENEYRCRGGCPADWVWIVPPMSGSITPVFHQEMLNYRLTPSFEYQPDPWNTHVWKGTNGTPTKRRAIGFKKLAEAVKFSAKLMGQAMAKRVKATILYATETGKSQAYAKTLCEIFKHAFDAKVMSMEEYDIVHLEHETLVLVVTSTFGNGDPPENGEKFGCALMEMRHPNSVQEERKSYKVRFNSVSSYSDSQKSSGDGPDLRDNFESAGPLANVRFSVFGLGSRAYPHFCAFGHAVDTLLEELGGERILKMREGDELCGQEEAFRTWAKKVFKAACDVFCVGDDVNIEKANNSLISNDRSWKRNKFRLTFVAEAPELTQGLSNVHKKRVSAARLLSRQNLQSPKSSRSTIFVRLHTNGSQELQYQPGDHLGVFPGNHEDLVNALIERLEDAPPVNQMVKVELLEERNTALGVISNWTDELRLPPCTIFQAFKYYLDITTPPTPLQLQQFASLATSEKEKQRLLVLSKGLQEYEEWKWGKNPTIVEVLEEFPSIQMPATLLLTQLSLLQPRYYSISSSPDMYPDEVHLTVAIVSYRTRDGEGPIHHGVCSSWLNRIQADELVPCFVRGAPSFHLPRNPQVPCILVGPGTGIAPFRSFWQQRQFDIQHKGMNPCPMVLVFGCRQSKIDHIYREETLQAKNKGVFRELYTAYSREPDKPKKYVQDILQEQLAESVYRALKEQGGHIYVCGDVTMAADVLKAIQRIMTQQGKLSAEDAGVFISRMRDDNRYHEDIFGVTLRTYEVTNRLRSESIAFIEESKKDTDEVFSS

With `CC1CCC(=N)N1` (centres unmarked) [Table 1: CH3, H, H] the “% inhibition” value (NO synthase; Table 1) was 98%.
For `CNC1=NCCCCC1` [Table 2: CH3], the “% inhibition” value (NO synthase; Table 2) was 3%.
`N=C1CCCN1` [drawing 15] was tested, and the “% inhibition” value (NO synthase; Table 3) was 90%.
In the case of `CCNC1=NCCCCC1` [Table 2: CH2 CH3], the “% inhibition” value (NO synthase; Table 2) is reported as 55%.
In the case of `N=C1CCCN1` [Table 1: H, H, H], the “% inhibition” value (NO synthase; Table 1) is reported as 90%.
`N=C1CCCCN1` [drawing 16] was tested, and the “% inhibition” value (NO synthase; Table 3) was 100%.
With `N=C1CCCCCCCN1` the “% inhibition” value (NO synthase; Table 3) was 100%.
In the case of `N=C1CCCCCCN1`, the “% inhibition” value (NO synthase; Table 3) is reported as 100%.
In the case of `CCC1CN=C(N)C1C` (centres unmarked) [Table 4: CH3, C2H5, H, H, H, 2-Imino-4-ethyl-3-methylpyrrolidine hydrochloride], the IC50 (iNOS; Table 4, read-out: IC50 iNOS) is reported as ≤ 1 µM, the IC50 (ecNOS; Table 4, read-out: IC50 ecNOS) is reported as > 50 µM and the IC50 (ncNOS; Table 4, read-out: IC50 ncNOS) is reported as ≤ 10 µM.
For `CCCC1CN=C(N)C1` (centres unmarked) [Table 4: H, n-C3H7, H, H, H, 2-Imino-4-propylpyrrolidine hydrochloride], the IC50 (iNOS; Table 4, read-out: IC50 iNOS) was ≤ 50 µM, the IC50 (ecNOS; Table 4, read-out: IC50 ecNOS) was > 50 µM and the IC50 (ncNOS; Table 4, read-out: IC50 ncNOS) was > 50 µM.
In the case of `N=C1CC[C@@H]2CCCN12` [Table 4: H, H, (CH2)3, H, 5-(S)-2-Imino-1-aza-bicyclo(3.3.0)octane], the IC50 (iNOS; Table 4, read-out: IC50 iNOS) is reported as > 50 µM, the IC50 (ecNOS; Table 4, read-out: IC50 ecNOS) is reported as ≤ 50 µM and the IC50 (ncNOS; Table 4, read-out: IC50 ncNOS) is reported as ≤ 10 µM.
`N=C1CCCCCN1` was tested, and the “% inhibition” value (NO synthase; Table 3) was 96%.
`CC1(C)CCC(=N)NC1` [Table 5: CH2, H, H, (CH3)2, H, H, H, 2-Imino-5,5-dimethylpiperidine hydrochloride] was tested, and the IC50 (iNOS; Table 5, read-out: IC50 iNOS) was ≤ 10 µM, the IC50 (ecNOS; Table 5, read-out: IC50 ecNOS) was ≤ 50 µM and the IC50 (ncNOS; Table 5, read-out: IC50 ncNOS) was ≤ 10 µM.
With `CC[C@@H]1C(=N)NCC[C@@H]1C` (relative stereo) [Table 5: CH, C2H5, CH3, H, H, H, H, cis-3-Ethyl-2-imino-4-methyl-piperidine, hydrochloride] the IC50 (iNOS; Table 5, read-out: IC50 iNOS) was ≤ 50 µM, the IC50 (ecNOS; Table 5, read-out: IC50 ecNOS) was ≤ 50 µM and the IC50 (ncNOS; Table 5, read-out: IC50 ncNOS) was ≤ 10 µM.
For `N=C1CSCCN1` [Table 5: S, H, --, H, H, H, H, 3-Iminothiomorpholine hydrochloride], the IC50 (iNOS; Table 5, read-out: IC50 iNOS) was ≤ 1 µM, the IC50 (ecNOS; Table 5, read-out: IC50 ecNOS) was ≤ 10 µM and the IC50 (ncNOS; Table 5, read-out: IC50 ncNOS) was ≤ 1 µM.
In the case of `NC1=NCCC1` [Table 4: H, H, H, H, H, 1-Aza-2-imino-cyclopentane hydrochloride], the IC50 (iNOS; Table 4, read-out: IC50 iNOS) is reported as ≤ 10 µM, the IC50 (ecNOS) is reported as ≤ 10 µM and the IC50 (ncNOS) is reported as ≤ 10 µM.
For `NC1=NCCc2ccccc21` [Table 5: C, (CH)4, H, H, H, H], the IC50 (iNOS; Table 5, read-out: IC50 iNOS) was ≤ 10 µM, the IC50 (ecNOS; Table 5, read-out: IC50 ecNOS) was ≤ 50 µM and the IC50 (ncNOS; Table 5, read-out: IC50 ncNOS) was ≤ 10 µM.
For `CC1CCCN=C1N` (centres unmarked) [Table 5: CH2, CH3, H, H, H, H, H, 2-Imino-3-methylpiperidine hydrochloride], the IC50 (iNOS) was ≤ 10 µM, the IC50 (ecNOS) was ≤ 10 µM and the IC50 (ncNOS; Table 5, read-out: IC50 ncNOS) was ≤ 1 µM.
With `N=C1NCCC1S` (centres unmarked) [Table 4: SH, H, H, H, H] the IC50 (iNOS; Table 4, read-out: IC50 iNOS) was ≤ 50 µM, the IC50 (ecNOS; Table 4, read-out: IC50 ecNOS) was ≤ 50 µM and the IC50 (ncNOS; Table 4, read-out: IC50 ncNOS) was ≤ 1 µM.
For `CC1CN=C(N)C1` (centres unmarked) [Table 4: H, CH3, H, H, H, 2-Imino-4-methylpyrrolidine hydrochloride], the IC50 (iNOS) was ≤ 10 µM, the IC50 (ecNOS) was ≤ 10 µM and the IC50 (ncNOS) was ≤ 1 µM.
In the case of `CC1CCN=C1N` (centres unmarked) [Table 4: CH3, H, H, H, H, 2-Imino-3-methylpyrrolidine hydrochloride], the IC50 (iNOS; Table 4, read-out: IC50 iNOS) is reported as ≤ 10 µM, the IC50 (ecNOS; Table 4, read-out: IC50 ecNOS) is reported as ≤ 10 µM and the IC50 (ncNOS) is reported as ≤ 1 µM.
`N=C1CN[C@@H]2CCCC[C@@H]2N1` (relative stereo) [Table 5: N, H, H, cis-(CH2)4, H, H, 2-Imino-decahydro-cis-quinoxaline] was tested, and the IC50 (iNOS) was ≤ 10 µM, the IC50 (ecNOS) was > 50 µM and the IC50 (ncNOS; Table 5, read-out: IC50 ncNOS) was > 50 µM.
`N=C1CC[C@H](CO)N1` [Table 4: H, H, (R)-CH2OH, H, H, 2-Imino-5-(R)-hydroxymethylpyrrolidine hydrochloride] was tested, and the IC50 (iNOS; Table 4, read-out: IC50 iNOS) was ≤ 50 µM, the IC50 (ecNOS; Table 4, read-out: IC50 ecNOS) was ≤ 50 µM and the IC50 (ncNOS; Table 4, read-out: IC50 ncNOS) was ≤ 50 µM.
In the case of `CC1CC(N)=NC1C` (single isomer, unassigned) [Table 4: H, CH3, CH3(A), H, H], the IC50 (iNOS; Table 4, read-out: IC50 iNOS) is reported as ≤ 1 µM, the IC50 (ecNOS; Table 4, read-out: IC50 ecNOS) is reported as ≤ 1 µM and the IC50 (ncNOS; Table 4, read-out: IC50 ncNOS) is reported as ≤ 1 µM.
With `CCCC1CC(N)=NC1CC` (centres unmarked) [Table 4: H, n-C3H7, C2H5, H, H, 2-Imino-5-ethyl-4-propylpyrrolidine hydrochloride] the IC50 (iNOS; Table 4, read-out: IC50 iNOS) was ≤ 50 µM, the IC50 (ecNOS; Table 4, read-out: IC50 ecNOS) was > 50 µM and the IC50 (ncNOS; Table 4, read-out: IC50 ncNOS) was ≤ 50 µM.
For `C1CCN=C(NC2CCCCC2)CC1` [Table 2: cyclohexyl], the “% inhibition” value (NO synthase; Table 2) was 8%.
`c1ccc(CNC2=NCCCCC2)cc1` [Table 2: CH2 -phenyl] was tested, and the “% inhibition” value (NO synthase; Table 2) was 3%.
With `CC1CC(N)=NC1C` (centres unmarked) [Table 4: H, CH3, CH3, H, H, 2-Imino-4,5-dimethylpyrrolidine hydrochloride] the IC50 (iNOS; Table 4, read-out: IC50 iNOS) was ≤ 1 µM, the IC50 (ecNOS; Table 4, read-out: IC50 ecNOS) was < 1 µM and the IC50 (ncNOS; Table 4, read-out: IC50 ncNOS) was < 1 µM.
`CCC1CN=C(N)C1` (centres unmarked) [Table 4: H, C2H5, H, H, H, 2-Imino-4-ethylpyrrolidine hydrochloride] was tested, and the IC50 (iNOS; Table 4, read-out: IC50 iNOS) was ≤ 1 µM, the IC50 (ecNOS; Table 4, read-out: IC50 ecNOS) was ≤ 50 µM and the IC50 (ncNOS; Table 4, read-out: IC50 ncNOS) was ≤ 10 µM.
In the case of `N=C(N)CCNC(=O)C1CCC(=N)N1` (centres unmarked), the IC50 (iNOS; Table 4, read-out: IC50 iNOS) is reported as ≤ 10 µM, the IC50 (ecNOS; Table 4, read-out: IC50 ecNOS) is reported as > 50 µM and the IC50 (ncNOS; Table 4, read-out: IC50 ncNOS) is reported as < 10 µM.
With `CCCC1CCN=C(N)C1` (centres unmarked) [Table 5: CH, H, n-C3H7, H, H, H, H, 2-Imino-4-propylpiperidine hydrochloride] the IC50 (iNOS; Table 5, read-out: IC50 iNOS) was ≤ 10 µM, the IC50 (ecNOS; Table 5, read-out: IC50 ecNOS) was > 50 µM and the IC50 (ncNOS; Table 5, read-out: IC50 ncNOS) was > 50 µM.
